In ChEMBL document CHEMBL4177526, “Discovery and structure activity relationship of the first potent cryptosporidium FIKK kinase inhibitor” (Bioorg Med Chem, 2017):

What was measured:
[1] = target: Phosphorylase b kinase gamma catalytic chain, skeletal muscle/heart isoform (Homo sapiens) (UniProt Q16816); test: Inhibition of human PHKgamma1 (2 to 297 residues) assessed as residual activity at 500 nM in presence of 33P-ATP by filter binding assay relative to control
[2] = target: Mitogen-activated protein kinase 8 (Homo sapiens) (UniProt P45983); test: Inhibition of human JNK1 (1 to 384 residues) assessed as residual activity at 500 nM in presence of 33P-ATP by filter binding assay relative to control
[3] = target: Mitogen-activated protein kinase kinase kinase kinase 2 (Homo sapiens) (UniProt Q12851); test: Inhibition of human GCK (2 to 812 residues) assessed as residual activity at 500 nM in presence of 33P-ATP by filter binding assay relative to control
[4] = target: RAC-beta serine/threonine-protein kinase (Homo sapiens) (UniProt P31751); test: Inhibition of human PKBbeta (120 to 481 residues) assessed as residual activity at 500 nM in presence of 33P-ATP by filter binding assay relative to control
[5] = target: Serine/threonine-protein kinase Sgk1 (Homo sapiens) (UniProt O00141); test: Inhibition of human SGK1 (60 to 431 residues) assessed as residual activity at 500 nM in presence of 33P-ATP by filter binding assay relative to control
[6] = target: Protein kinase C zeta type (Homo sapiens) (UniProt Q05513); test: Inhibition of human PKCzeta (2 to 592 residues) assessed as residual activity at 500 nM in presence of 33P-ATP by filter binding assay relative to control
[7] = target: MAP/microtubule affinity-regulating kinase 3 (Homo sapiens) (UniProt P27448); test: Inhibition of human MARK3 (2 to 729 residues) assessed as residual activity at 500 nM in presence of 33P-ATP by filter binding assay relative to control
[8] = target: Serine/threonine-protein kinase tousled-like 1 (Homo sapiens) (UniProt Q9UKI8); test: Inhibition of human TLK1 (1 to 766 residues) assessed as residual activity at 500 nM in presence of 33P-ATP by filter binding assay relative to control
[9] = target: Serine/threonine-protein kinase PAK 6 (Homo sapiens) (UniProt Q9NQU5); test: Inhibition of human PAK6 (2 to 681 residues) assessed as residual activity at 500 nM in presence of 33P-ATP by scintillation counting method relative to control
[10] = target: Mitogen-activated protein kinase kinase kinase kinase 3 (Homo sapiens) (UniProt Q8IVH8); test: Inhibition of human MAP4K3 (1 to 873 residues) assessed as residual activity at 500 nM in presence of 33P-ATP by filter binding assay relative to control
[11] = target: Mitogen-activated protein kinase 12 (Homo sapiens) (UniProt P53778); test: Inhibition of human p38gamma (1 to 367 residues) assessed as residual activity at 500 nM in presence of 33P-ATP by filter binding assay relative to control
[12] = target: Insulin receptor (Homo sapiens) (UniProt P06213); test: Inhibition of human IR (1001 to 1382 residues) assessed as residual activity at 500 nM in presence of 33P-ATP by filter binding assay relative to control
[13] = target: CDK9/cyclin T1 (Homo sapiens) (UniProt O60563+P50750); test: Inhibition of human CDK9 (1 to 372 residues)/cyclinT1 (1 to 726 residues) assessed as residual activity at 500 nM in presence of 33P-ATP by filter binding assay relative to control; format: protein-complex assay
[14] = target: Serine/threonine-protein kinase ULK1 (Homo sapiens) (UniProt O75385); test: Inhibition of human ULK1 (2 to 1050 residues) assessed as residual activity at 500 nM in presence of 33P-ATP by filter binding assay relative to control
[15] = target: Ephrin type-A receptor 4 (Homo sapiens) (UniProt P54764); test: Inhibition of human EPHA4 (570 to 986 residues) assessed as residual activity at 500 nM in presence of 33P-ATP by filter binding assay relative to control
[16] = target: CDK2/Cyclin A2 (Homo sapiens) (UniProt P24941+P20248); test: Inhibition of human CDK2 (2 to 298 residues)/cyclinA2 (171 to 432 residues) assessed as residual activity at 500 nM in presence of 33P-ATP by filter binding assay relative to control; format: protein-complex assay
[17] = target: Serine/threonine-protein kinase Chk2 (Homo sapiens) (UniProt O96017); test: Inhibition of human CHK2 (5 to 543 residues) assessed as residual activity at 500 nM in presence of 33P-ATP by filter binding assay relative to control
[18] = target: MAP kinase-interacting serine/threonine-protein kinase 1 (Homo sapiens) (UniProt Q9BUB5); test: Inhibition of human MNK1 (2 to 424 residues) assessed as residual activity at 500 nM in presence of 33P-ATP by filter binding assay relative to control
[19] = target: Platelet-derived growth factor receptor alpha (Homo sapiens) (UniProt P16234); test: Inhibition of human PDGFRalpha (551 to […] residues) assessed as residual activity at 500 nM in presence of 33P-ATP by filter binding assay relative to control
[20] = target: MAP kinase-interacting serine/threonine-protein kinase 2 (Homo sapiens) (UniProt Q9HBH9); test: Inhibition of human MNK2alpha (2 to 465 residues) assessed as residual activity at 500 nM in presence of 33P-ATP by filter binding assay relative to control
[21] = target: High affinity nerve growth factor receptor (Homo sapiens) (UniProt P04629); test: Inhibition of human TRKA (441 to 760 residues) assessed as residual activity at 500 nM in presence of 33P-ATP by filter binding assay relative to control
[22] = target: Serine/threonine-protein kinase BRSK2 (Homo sapiens) (UniProt Q8IWQ3); test: Inhibition of human BRSK2 (2 to 674 residues) assessed as residual activity at 500 nM in presence of 33P-ATP by filter binding assay relative to control
[23] = target: Serine/threonine-protein kinase SIK3 (Homo sapiens) (UniProt Q9Y2K2); test: Inhibition of human SIK3 (2 to 1369 residues) assessed as residual activity at 500 nM in presence of 33P-ATP by filter binding assay relative to control
[24] = target: Mitogen-activated protein kinase 14 (Homo sapiens) (UniProt Q16539); test: Inhibition of human p38alpha (1 to 360 residues) assessed as residual activity at 500 nM in presence of 33P-ATP by filter binding assay relative to control
[25] = target: TAK1/TAB1 (Homo sapiens) (UniProt Q15750+O43318); test: Inhibition of human TAK1 (1 to 303 residues)/TAB1 (437 to 504 residues) at 500 nM in presence of 33P-ATP by filter binding assay relative to control; format: protein-complex assay
[26] = Efflux ratio of permeability in human Caco2 cells; format: ADME, cell-based; conditions: Caco-2

Sequence of RAC-beta serine/threonine-protein kinase (Homo sapiens) (P31751 whole entry, the tested form may be a part): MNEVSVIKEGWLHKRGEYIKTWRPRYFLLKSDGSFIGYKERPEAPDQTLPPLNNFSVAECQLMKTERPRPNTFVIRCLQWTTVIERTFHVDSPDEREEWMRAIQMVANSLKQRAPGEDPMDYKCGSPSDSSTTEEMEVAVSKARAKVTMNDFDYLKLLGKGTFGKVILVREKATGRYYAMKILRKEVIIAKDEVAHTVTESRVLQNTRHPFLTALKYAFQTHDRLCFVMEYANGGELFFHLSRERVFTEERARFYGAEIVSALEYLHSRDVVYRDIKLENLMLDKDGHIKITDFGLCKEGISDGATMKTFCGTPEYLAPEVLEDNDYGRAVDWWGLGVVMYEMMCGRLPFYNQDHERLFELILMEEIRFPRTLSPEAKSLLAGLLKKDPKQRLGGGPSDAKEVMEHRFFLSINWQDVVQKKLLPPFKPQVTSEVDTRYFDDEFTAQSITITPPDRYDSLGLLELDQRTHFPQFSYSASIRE
Sequence of MAP/microtubule affinity-regulating kinase 3 (Homo sapiens) (P27448 whole entry, looked up, the tested form may be a part): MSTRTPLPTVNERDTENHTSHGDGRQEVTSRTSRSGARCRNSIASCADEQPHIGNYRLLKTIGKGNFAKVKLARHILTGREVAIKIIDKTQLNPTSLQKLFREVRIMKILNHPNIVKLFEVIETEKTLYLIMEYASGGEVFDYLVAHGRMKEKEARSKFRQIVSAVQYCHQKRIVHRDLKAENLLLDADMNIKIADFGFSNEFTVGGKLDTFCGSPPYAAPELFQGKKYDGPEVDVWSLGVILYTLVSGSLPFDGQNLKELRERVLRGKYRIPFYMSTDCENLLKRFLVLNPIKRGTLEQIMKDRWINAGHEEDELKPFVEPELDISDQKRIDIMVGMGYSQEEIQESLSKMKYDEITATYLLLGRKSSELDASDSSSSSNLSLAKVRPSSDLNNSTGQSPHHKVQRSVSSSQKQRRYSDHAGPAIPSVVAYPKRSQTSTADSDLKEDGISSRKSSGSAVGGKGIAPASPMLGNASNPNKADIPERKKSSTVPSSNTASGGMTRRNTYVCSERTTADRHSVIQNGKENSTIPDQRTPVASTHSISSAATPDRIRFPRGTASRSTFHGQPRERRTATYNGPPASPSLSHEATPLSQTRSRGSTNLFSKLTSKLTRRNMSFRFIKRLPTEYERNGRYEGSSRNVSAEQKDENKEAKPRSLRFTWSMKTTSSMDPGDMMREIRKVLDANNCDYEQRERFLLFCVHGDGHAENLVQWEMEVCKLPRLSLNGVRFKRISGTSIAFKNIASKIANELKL
Sequence of Serine/threonine-protein kinase Sgk1 (Homo sapiens) (O00141 whole entry, the tested form may be a part): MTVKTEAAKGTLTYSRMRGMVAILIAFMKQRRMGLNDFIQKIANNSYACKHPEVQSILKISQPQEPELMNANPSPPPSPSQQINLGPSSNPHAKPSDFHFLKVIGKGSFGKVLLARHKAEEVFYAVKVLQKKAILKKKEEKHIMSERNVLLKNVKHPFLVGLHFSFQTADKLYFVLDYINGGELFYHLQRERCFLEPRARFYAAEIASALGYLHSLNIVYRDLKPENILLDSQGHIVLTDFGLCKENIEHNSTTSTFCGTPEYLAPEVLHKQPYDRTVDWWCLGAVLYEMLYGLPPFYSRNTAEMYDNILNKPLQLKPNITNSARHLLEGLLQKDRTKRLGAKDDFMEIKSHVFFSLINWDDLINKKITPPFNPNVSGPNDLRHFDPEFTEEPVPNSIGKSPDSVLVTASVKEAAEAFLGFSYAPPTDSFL
Sequence of Serine/threonine-protein kinase BRSK2 (Homo sapiens) (Q8IWQ3 whole entry, the tested form may be a part): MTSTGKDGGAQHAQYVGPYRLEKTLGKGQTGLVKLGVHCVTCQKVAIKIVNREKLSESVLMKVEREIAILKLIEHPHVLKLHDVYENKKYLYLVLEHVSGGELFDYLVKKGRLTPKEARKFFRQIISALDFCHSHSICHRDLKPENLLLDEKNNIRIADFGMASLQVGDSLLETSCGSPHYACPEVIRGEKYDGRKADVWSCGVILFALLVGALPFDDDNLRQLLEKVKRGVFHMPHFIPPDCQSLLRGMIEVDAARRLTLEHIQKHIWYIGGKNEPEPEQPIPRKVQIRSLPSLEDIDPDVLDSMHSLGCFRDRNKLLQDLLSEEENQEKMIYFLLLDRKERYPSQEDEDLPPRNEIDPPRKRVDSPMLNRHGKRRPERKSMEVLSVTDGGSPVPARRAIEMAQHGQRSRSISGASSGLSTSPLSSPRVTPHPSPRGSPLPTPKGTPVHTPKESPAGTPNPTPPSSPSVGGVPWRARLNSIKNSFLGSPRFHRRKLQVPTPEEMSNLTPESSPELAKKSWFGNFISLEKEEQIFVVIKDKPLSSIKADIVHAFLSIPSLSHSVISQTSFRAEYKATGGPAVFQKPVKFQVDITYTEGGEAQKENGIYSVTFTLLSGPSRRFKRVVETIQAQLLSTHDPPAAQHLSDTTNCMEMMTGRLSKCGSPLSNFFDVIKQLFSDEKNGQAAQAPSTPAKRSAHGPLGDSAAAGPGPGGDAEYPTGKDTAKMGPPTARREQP
Sequence of Mitogen-activated protein kinase kinase kinase kinase 3 (Homo sapiens) (Q8IVH8 whole entry, the tested form may be a part): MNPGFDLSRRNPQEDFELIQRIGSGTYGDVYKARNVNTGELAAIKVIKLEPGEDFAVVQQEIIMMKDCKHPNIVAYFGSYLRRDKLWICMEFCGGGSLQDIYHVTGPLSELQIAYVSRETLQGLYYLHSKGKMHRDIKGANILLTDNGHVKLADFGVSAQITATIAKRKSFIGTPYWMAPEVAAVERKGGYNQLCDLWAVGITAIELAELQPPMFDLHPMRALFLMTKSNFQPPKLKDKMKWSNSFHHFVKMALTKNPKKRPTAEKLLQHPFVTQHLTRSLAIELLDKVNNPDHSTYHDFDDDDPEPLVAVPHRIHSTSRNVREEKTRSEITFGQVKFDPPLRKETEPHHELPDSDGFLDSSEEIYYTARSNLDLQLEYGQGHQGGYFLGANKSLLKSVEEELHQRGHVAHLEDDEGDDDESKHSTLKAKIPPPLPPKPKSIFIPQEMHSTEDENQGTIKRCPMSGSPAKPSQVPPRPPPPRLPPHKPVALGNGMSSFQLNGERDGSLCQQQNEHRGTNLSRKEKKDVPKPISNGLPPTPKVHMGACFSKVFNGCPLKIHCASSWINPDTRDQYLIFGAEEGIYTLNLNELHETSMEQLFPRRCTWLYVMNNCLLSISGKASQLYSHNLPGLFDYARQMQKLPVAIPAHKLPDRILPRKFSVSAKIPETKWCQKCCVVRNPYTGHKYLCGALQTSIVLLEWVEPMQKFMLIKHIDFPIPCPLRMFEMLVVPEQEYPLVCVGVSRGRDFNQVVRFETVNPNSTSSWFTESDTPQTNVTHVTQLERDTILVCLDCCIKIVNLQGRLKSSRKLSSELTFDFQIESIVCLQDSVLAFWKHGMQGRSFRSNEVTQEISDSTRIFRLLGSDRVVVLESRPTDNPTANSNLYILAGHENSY
Sequence of Mitogen-activated protein kinase 8 (Homo sapiens) (P45983 whole entry, the tested form may be a part): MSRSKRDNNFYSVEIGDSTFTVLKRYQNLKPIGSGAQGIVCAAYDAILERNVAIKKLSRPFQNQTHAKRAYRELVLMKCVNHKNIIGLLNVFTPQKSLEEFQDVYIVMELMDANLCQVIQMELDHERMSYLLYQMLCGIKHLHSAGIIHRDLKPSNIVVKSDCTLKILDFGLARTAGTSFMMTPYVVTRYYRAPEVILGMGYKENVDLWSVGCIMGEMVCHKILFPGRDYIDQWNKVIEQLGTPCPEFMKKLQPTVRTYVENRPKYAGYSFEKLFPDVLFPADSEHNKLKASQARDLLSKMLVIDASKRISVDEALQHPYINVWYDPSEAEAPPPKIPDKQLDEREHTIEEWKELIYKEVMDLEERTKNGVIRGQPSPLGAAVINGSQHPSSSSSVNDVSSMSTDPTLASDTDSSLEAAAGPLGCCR
Sequence of MAP kinase-interacting serine/threonine-protein kinase 2 (Homo sapiens) (Q9HBH9 whole entry, looked up, the tested form may be a part): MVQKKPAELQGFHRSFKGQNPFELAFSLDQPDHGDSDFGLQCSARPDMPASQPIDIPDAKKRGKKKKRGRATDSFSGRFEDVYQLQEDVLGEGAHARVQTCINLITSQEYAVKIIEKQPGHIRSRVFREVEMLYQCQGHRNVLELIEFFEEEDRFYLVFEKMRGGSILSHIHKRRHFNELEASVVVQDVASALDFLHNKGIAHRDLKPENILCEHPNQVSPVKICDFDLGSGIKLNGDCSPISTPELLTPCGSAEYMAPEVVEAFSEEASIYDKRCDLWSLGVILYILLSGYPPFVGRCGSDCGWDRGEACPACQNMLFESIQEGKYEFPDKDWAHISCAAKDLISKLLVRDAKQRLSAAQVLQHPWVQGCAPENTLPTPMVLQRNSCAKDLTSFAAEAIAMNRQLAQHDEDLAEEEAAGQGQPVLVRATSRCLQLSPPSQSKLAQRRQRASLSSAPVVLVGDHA
Sequence of Mitogen-activated protein kinase 14 (Homo sapiens) (Q16539 whole entry, the tested form may be a part): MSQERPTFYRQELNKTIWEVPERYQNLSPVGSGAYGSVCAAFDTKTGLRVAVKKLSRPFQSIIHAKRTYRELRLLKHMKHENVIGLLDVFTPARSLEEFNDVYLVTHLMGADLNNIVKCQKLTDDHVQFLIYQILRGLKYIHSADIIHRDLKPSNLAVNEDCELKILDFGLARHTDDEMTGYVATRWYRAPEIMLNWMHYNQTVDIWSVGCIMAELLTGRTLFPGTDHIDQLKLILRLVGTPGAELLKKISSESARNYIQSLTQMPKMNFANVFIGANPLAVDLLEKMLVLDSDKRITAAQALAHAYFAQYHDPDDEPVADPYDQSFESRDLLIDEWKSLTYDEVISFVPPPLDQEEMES
Sequence of Mitogen-activated protein kinase 12 (Homo sapiens) (P53778 whole entry, the tested form may be a part): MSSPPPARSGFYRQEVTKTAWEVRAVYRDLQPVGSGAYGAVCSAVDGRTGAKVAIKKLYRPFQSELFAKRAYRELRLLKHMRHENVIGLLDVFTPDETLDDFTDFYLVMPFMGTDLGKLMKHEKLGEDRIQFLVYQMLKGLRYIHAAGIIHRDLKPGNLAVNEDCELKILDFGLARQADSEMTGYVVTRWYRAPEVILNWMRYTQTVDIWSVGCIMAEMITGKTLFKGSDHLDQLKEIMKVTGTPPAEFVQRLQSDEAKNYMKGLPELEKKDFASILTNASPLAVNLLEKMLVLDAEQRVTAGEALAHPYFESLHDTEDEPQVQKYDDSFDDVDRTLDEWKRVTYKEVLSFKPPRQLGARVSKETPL

Cc1cccc(-c2nc(N)sc2-c2ccc3ncccc3n2)c1
Activity [1]: 107% | Activity [2]: 134% | Activity [3]: 133% | Activity [4]: 127% | Activity [5]: 124% | Activity [6]: 123% | Activity [7]: 121% | Activity [8]: 121% | Activity [9]: 119% | Activity [10]: 118% | Activity [11]: 116% | Activity [12]: 115% | Activity [13]: 106% | Activity [14]: 106% | Activity [15]: 104% | Activity [16]: 104% | Activity [17]: 101% | Activity [18]: 99% | Activity [19]: 99% | Activity [20]: 98% | Activity [21]: 97% | Activity [22]: 89% | Activity [23]: 86% | Activity [24]: 9% | inhibition [25]: 60% | efflux ratio [26]: < 1
